Among the data in patent US9708308B2, “Factor IXa inhibitors” (Merck Sharp & Dohme Corp., priority 2012, dated 2017) are IC50 values, retold here.

SMILES strings stand for the structures.

In the experiment the target is Factor IXa (Homo sapiens, UniProt P00740). As to the kind of experiment: Determination of inhibitory activity against Factor IXa (cleavage of fluorescent peptide substrate). The experiment is classed as biochemical. The conditions noted are these: cleavage of fluorescent peptide CH3SO2-D-CHG-Gly-Arg-AFC, release of AFC; read-out: FIXa IC50. The source says: • (R)—N-(3-aminobenzo[d]isoxazol-6-yl)-2-hydroxy-2-((R)-4-(1-(6-methoxypyridazin-4-yl)-1H-pyrazol-3-yl)-6,6-dimethyl-3-oxomorpholin-2-yl)acetamide. Determination of Inhibitory Activity Against Factor IXa
Sequence of Factor IXa (P00740 227-461 limits assumed): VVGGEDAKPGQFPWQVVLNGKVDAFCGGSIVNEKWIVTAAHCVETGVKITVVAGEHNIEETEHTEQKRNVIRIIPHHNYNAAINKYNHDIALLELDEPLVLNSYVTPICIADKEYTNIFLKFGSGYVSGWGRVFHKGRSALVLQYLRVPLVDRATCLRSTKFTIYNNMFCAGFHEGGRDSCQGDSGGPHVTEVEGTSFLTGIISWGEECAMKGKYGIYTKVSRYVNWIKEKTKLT
Sequence of Factor IXa (P00740 47-191 partner limits assumed): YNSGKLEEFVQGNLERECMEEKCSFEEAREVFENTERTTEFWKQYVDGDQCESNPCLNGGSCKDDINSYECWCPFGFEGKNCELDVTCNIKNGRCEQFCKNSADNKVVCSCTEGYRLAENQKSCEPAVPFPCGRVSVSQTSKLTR
Formation of a clot to stem bleeding at a site of blood vessel injury involves the coordinated activity of a group of plasma proteins that initiate and propagate fibrin formation and subsequently protect fibrin from premature degradation. Factor IX is a key component of the plasma system that forms a fibrin clot at a site of vascular injury. The activity of Factor IXa is measured by monitoring the cleavage of the fluorescent peptide, CH3SO2-D-CHG-Gly-Arg-AFC.AcOH (“CHG” is cyclohexyl-glycine and “AFC” is trifluoro aminomethyl coumarin). Factor IXa cleaves the amide bond between Arg and AFC, thereby releasing the AFC fluorophore. The free AFC can be detected with a fluorescence detector at an excitation wavelength of 405 nm and emission wavelength of 510 nm.
In general, IC50 refers to the concentration that gives 50% inhibition. Regarding `COc1cc(-n2nc(N3CCO[C@H]([C@@](C)(O)C(=O)Nc4ccc5c(N)noc5c4)C3=O)cc2C)ccn1` [Example 36, (R)—N-(3-aminobenzo[d]isoxazol-6-yl)-2-hydroxy-2-((R)-4-(1-(2-methoxypyridin-4-yl)-5-methyl-1H-pyrazol-3-yl)-3-oxomorpholin-2-yl)propanamide], the IC50 stood at 96.3 nM.

As for `C[C@](O)(C(=O)Nc1ccc2c(N)noc2c1)[C@H]1OCCN(c2ccn(-c3ccnnc3)n2)C1=O` [Example 37, (R)—N-(3-aminobenzo[d]isoxazol-6-yl)-2-hydroxy-2-((R)-3-oxo-4-(1-(pyridazin-4-yl)-1H-pyrazol-3-yl)morpholin-2-yl)propanamide], the concentration for half-maximal inhibition (IC50) amounted to 4.36 nM. `C[C@](O)(C(=O)Nc1ccc2c(N)noc2c1)[C@H]1OCCN(c2ccn(-c3cnnc(N4CCC4)c3)n2)C1=O` [Example 38, (R)—N-(3-aminobenzo[d]isoxazol-6-yl)-2-((R)-4-(1-(6-(azetidin-1-yl)pyridazin-4-yl)-1H-pyrazol-3-yl)-3-oxomorpholin-2-yl)-2-hydroxypropanamide]: the half-maximal inhibitory concentration (IC50) was found to be 23.2 nM. For `COc1cc(-n2ccc(N3CCO[C@H]([C@@](C)(O)C(=O)Nc4ccc5c(N)noc5c4)C3=O)n2)cnn1` [Example 39, (R)—N-(3-aminobenzo[d]isoxazol-6-yl)-2-hydroxy-2-((R)-4-(1-(6-methoxypyridazin-4-yl)-1H-pyrazol-3-yl)-3-oxomorpholin-2-yl)propanamide] the value was 160 nM. For `[2H]C([2H])([2H])Oc1cc(-n2ccc(N3CCO[C@H]([C@@](C)(O)C(=O)Nc4ccc5c(N)noc5c4)C3=O)n2)cnn1` [Example 40, (2R)—N-(3-amino-1,2-benzoxazol-6-yl)-2-hydroxy-2-[(2R)-3-oxo-4-[1-[6-(trideuteriomethoxy)pyridazin-4-yl]pyrazol-3-yl]morpholin-2-yl]propanamide], the half-maximal inhibitory concentration (IC50) turned out to be 3.7 nM. Consider `CC(C)Oc1cc(-n2ccc(N3CCO[C@H]([C@@](C)(O)C(=O)Nc4ccc5c(N)noc5c4)C3=O)n2)cnn1` [Example 41, (R)—N-(3-aminobenzo[d]isoxazol-6-yl)-2-hydroxy-2-((R)-4-(1-(6-isopropoxypyridazin-4-yl)-1H-pyrazol-3-yl)-3-oxomorpholin-2-yl)propanamide], for which the IC50 stood at 57.8 nM. Consider `C[C@](O)(C(=O)Nc1ccc2c(N)noc2c1)[C@H]1OCCN(c2ccn(-c3cnnc(OC4CCC4)c3)n2)C1=O` [Example 43, (R)—N-(3-aminobenzo[d]isoxazol-6-yl)-2-((R)-4-(1-(6-cyclobutoxypyridazin-4-yl)-1H-pyrazol-3-yl)-3-oxomorpholin-2-yl)-2-hydroxypropanamide], for which the half-inhibitory concentration (IC50) worked out at 535 nM. On to `Cn1ncc(-n2ccc(N3CCO[C@H]([C@@](C)(O)C(=O)Nc4ccc5c(N)noc5c4)C3=O)n2)cc1=O` [Example 44, (R)—N-(3-aminobenzo[d]isoxazol-6-yl)-2-hydroxy-2-((R)-4-(1-(1-methyl-6-oxo-1,6-dihydropyridazin-4-yl)-1H-pyrazol-3-yl)-3-oxomorpholin-2-yl)propanamide], for which the concentration for half-maximal inhibition (IC50) stood at 812 nM. With `C[C@](O)(C(=O)Nc1ccc2c(N)noc2c1)[C@H]1OCCN(c2ccn(-c3cnnc(C#N)c3)n2)C1=O` [Example 45, (R)—N-(3-aminobenzo[d]isoxazol-6-yl)-2-((R)-4-(1-(6-cyanopyridazin-4-yl)-1H-pyrazol-3-yl)-3-oxomorpholin-2-yl)-2-hydroxypropanamide], the IC50 was found to be 2.6 nM. Regarding `C[C@](O)(C(=O)Nc1ccc2c(N)noc2c1)[C@H]1OCCN(c2ccn(-c3cnnc(C(F)(F)F)c3)n2)C1=O` [Example 46, (R)—N-(3-aminobenzo[d]isoxazol-6-yl)-2-hydroxy-2-((R)-3-oxo-4-(1-(6-(trifluoromethyl)pyridazin-4-yl)-1H-pyrazol-3-yl)morpholin-2-yl)propanamide], the concentration for half-maximal inhibition (IC50) amounted to 1.41 nM.

Turning to `C[C@](O)(C(=O)Nc1ccc2c(N)noc2c1)[C@H]1OCCN(c2nn(-c3ccnnc3)cc2F)C1=O` [Example 47, (R)—N-(3-aminobenzo[d]isoxazol-6-yl)-2-((R)-4-(4-fluoro-1-(pyridazin-4-yl)-1H-pyrazol-3-yl)-3-oxomorpholin-2-yl)-2-hydroxypropanamide], the IC50 came to 6.91 nM. Turning to `C[C@](O)(C(=O)Nc1ccc2c(N)noc2c1)[C@H]1OCCN(c2nn(-c3cnnc(C#N)c3)cc2F)C1=O` [Example 48, (R)—N-(3-aminobenzo[d]isoxazol-6-yl)-2-((R)-4-(1-(6-cyanopyridazin-4-yl)-4-fluoro-1H-pyrazol-3-yl)-3-oxomorpholin-2-yl)-2-hydroxypropanamide], the IC50 turned out to be 4.15 nM. As to `COc1cc(-n2cc(F)c(N3CCO[C@H]([C@@](C)(O)C(=O)Nc4ccc5c(N)noc5c4)C3=O)n2)cnn1` [Example 49, (R)—N-(3-aminobenzo[d]isoxazol-6-yl)-2-((R)-4-(4-fluoro-1-(6-methoxypyridazin-4-yl)-1H-pyrazol-3-yl)-3-oxomorpholin-2-yl)-2-hydroxypropanamide], the concentration for half-maximal inhibition (IC50) stood at 6.48 nM. On to `C[C@](O)(C(=O)Nc1ccc2c(N)noc2c1)[C@H]1OCCN(c2nn(-c3cnnc(C(F)(F)F)c3)cc2F)C1=O` [Example 50, (R)—N-(3-aminobenzo[d]isoxazol-6-yl)-2-((R)-4-(4-fluoro-1-(6-(trifluoromethyl)pyridazin-4-yl)-1H-pyrazol-3-yl)-3-oxomorpholin-2-yl)-2-Hydroxypropanamide], for which the IC50 stood at 1.89 nM. In the case of `Cc1nccc(-n2ccc(N3CCO[C@H]([C@@](C)(O)C(=O)Nc4ccc5c(N)noc5c4)C3=O)n2)n1` [Example 51, (R)—N-(3-aminobenzo[d]isoxazol-6-yl)-2-hydroxy-2-((R)-4-(1-(2-methylpyrimidin-4-yl)-1H-pyrazol-3-yl)-3-oxomorpholin-2-yl)propanamide], the concentration for half-maximal inhibition (IC50) was found to be 170 nM. Take `CN(C)c1nccc(-n2ccc(N3CCO[C@H]([C@@](C)(O)C(=O)Nc4ccc5c(N)noc5c4)C3=O)n2)n1` [Example 52, (R)—N-(3-aminobenzo[d]isoxazol-6-yl)-2-((R)-4-(1-(2-(dimethylamino)pyrimidin-4-yl)-1H-pyrazol-3-yl)-3-oxomorpholin-2-yl)-2-Hydroxypropanamide]: the IC50 was found to be 102 nM. To `C[C@](O)(C(=O)Nc1ccc2c(N)noc2c1)[C@H]1OCCN(c2ccn(-c3ccnc(C(F)(F)F)n3)n2)C1=O` [Example 53, (R)—N-(3-aminobenzo[d]isoxazol-6-yl)-2-hydroxy-2-((R)-3-oxo-4-(1-(2-(trifluoromethyl)pyrimidin-4-yl)-1H-pyrazol-3-yl)morpholin-2-yl)propanamide] belongs 76.7 nM; to `C[C@](O)(C(=O)Nc1ccc2c(N)noc2c1)[C@H]1OCCN(c2ccn(-c3ccnc(C#N)n3)n2)C1=O` [Example 54, (R)—N-(3-aminobenzo[d]isoxazol-6-yl)-2-((R)-4-(1-(2-cyanopyrimidin-4-yl)-1H-pyrazol-3-yl)-3-oxomorpholin-2-yl)-2-hydroxypropanamide], 145 nM. In the case of `COc1nccc(-n2ccc(N3CCO[C@H]([C@@](C)(O)C(=O)Nc4ccc5c(N)noc5c4)C3=O)n2)n1` [Example 55, (R)—N-(3-aminobenzo[d]isoxazol-6-yl)-2-hydroxy-2-((R)-4-(1-(2-methoxypyrimidin-4-yl)-1H-pyrazol-3-yl)-3-oxomorpholin-2-yl)propanamide], the IC50 came out at 24.8 nM. For the molecule `COc1cc(-n2ccc(N3CCO[C@H]([C@@](C)(O)C(=O)Nc4ccc5c(N)noc5c4)C3=O)n2)ncn1` [Example 56, (R)—N-(3-aminobenzo[d]isoxazol-6-yl)-2-hydroxy-2-((R)-4-(1-(6-methoxypyrimidin-4-yl)-1H-pyrazol-3-yl)-3-oxomorpholin-2-yl)propanamide], the IC50 came out at 84.5 nM. Turning to `C[C@](O)(C(=O)Nc1ccc2c(N)noc2c1)[C@H]1OCCN(c2nn(-c3ccnc(C(F)(F)F)n3)cc2F)C1=O` [Example 57, (R)—N-(3-aminobenzo[d]isoxazol-6-yl)-2-((R)-4-(4-fluoro-1-(2-(trifluoromethyl)pyrimidin-4-yl)-1H-pyrazol-3-yl)-3-oxomorpholin-2-yl)-2-hydroxypropanamide], the IC50 was determined as 63.7 nM.

Take `COc1nccc(-n2cc(F)c(N3CCO[C@H]([C@@](C)(O)C(=O)Nc4ccc5c(N)noc5c4)C3=O)n2)n1` [Example 58, (R)—N-(3-aminobenzo[d]isoxazol-6-yl)-2-((R)-4-(4-fluoro-1-(2-methoxypyrimidin-4-yl)-1H-pyrazol-3-yl)-3-oxomorpholin-2-yl)-2-hydroxypropanamide]: the IC50 is 32 nM. With `Cc1cc(N2CCO[C@H]([C@@](C)(O)C(=O)Nc3ccc4c(N)noc4c3)C2=O)nn1-c1ccnc(C(F)(F)F)n1` [Example 59, (R)—N-(3-aminobenzo[d]isoxazol-6-yl)-2-hydroxy-2-((R)-4-(5-methyl-1-(2-(trifluoromethyl)pyrimidin-4-yl)-1H-pyrazol-3-yl)-3-oxomorpholin-2-yl)propanamide], the IC50 is 72.8 nM. For `C[C@](O)(C(=O)Nc1ccc2c(N)noc2c1)[C@H]1OCCN(c2ccc(-c3ccnc(C#N)c3)o2)C1=O` [Example 61, (R)—N-(3-aminobenzo[d]isoxazol-6-yl)-2-((R)-4-(5-(2-cyanopyridin-4-yl)furan-2-yl)-3-oxomorpholin-2-yl)-2-hydroxypropanamide] the value was 93 nM; for `C[C@](O)(C(=O)Nc1ccc2c(N)noc2c1)[C@H]1OCCN(c2ccc(-c3ccnc(C(F)(F)F)c3)o2)C1=O` [Example 62, (R)—N-(3-aminobenzo[d]isoxazol-6-yl)-2-hydroxy-2-((R)-3-oxo-4-(5-(2-(trifluoromethyl)pyridin-4-yl)furan-2-yl)morpholin-2-yl)propanamide], 43.5 nM.
